Assay results as given in the SangsterLogP compilation.

Work on `Cc1ccc(C)c(C)c1` yielded a logP of 3.91.
`CC(C)Cc1ccccc1` showed a logP of 4.68.
With `CCCc1cccc(C)c1` the logP was 4.67.
`CCc1ccccc1C` gave a logP of 3.86.
`CCc1ccc(C)cc1C` gave a logP of 4.47.
For `CCc1cccc(C)c1C`, the logP was 4.34.
For `CCCc1ccc(C)cc1`, the logP was 4.6.
Work on `Cc1ccccc1C(C)C` yielded a logP of 4.38.
For `CCc1c(C)cccc1C`, the logP was 4.28.
Work on `CCc1ccc(C)cc1` yielded a logP of 4.
`CCc1cc(C)ccc1C` gave a logP of 4.43.
With `Cc1ccc(C)cc1` the logP was 3.42.
With `CCc1cccc(C)c1` the logP was 3.98.
For `CCc1cc(C)cc(C)c1`, the logP was 4.55.
Work on `CCc1ccc(C)c(C)c1` yielded a logP of 4.5.
Work on `CCCCCCCCCc1ccccc1` yielded a logP of 7.11.
Molecule `CCCc1ccccc1C` has a logP of 4.5.
Work on `Cc1cccc(C(C)C)c1` yielded a logP of 4.5.
`Cc1cccc(C)c1C` gave a logP of 3.78.
For `CCC(C)c1ccccc1` (stereo not given), the logP was 4.57.
